Test results: patent US9034403B2, “Yeast extract containing γ-Glu-X or γ-Glu-X-Gly and a method for producing the same” (AJINOMOTO CO., INC., priority 2010, dated 2015)

Tested on: S288C and HGT1 or PTR2 modified strains (Hgt1p, Ptr2p)
Assay: Evaluation of γ-Glu-Val-Gly uptake activity of HGT1 or PTR2 modified strains
Assay type: cell-based, Saccharomyces cerevisiae
Conditions: 100 ppm γ-Glu-Val-Gly in SD medium, 7 hours
Protocol: The influence of Hgt1p, which has been considered to be a GSH specific transporter, and Ptr2p, which is a peptide transporter, on γ-Glu-Val-Gly accumulation was evaluated as follows.
Each strain was cultivated in 50-ml tubes containing 5 ml of SD medium with 100 ppm γ-Glu-Val-Gly as a final concentration. Tubes were inoculated by overnight culture of the corresponding strain at initial OD600=0.5, and placed in a rotation shaker at 240 rpm, 30° C. The cultivation time was 7 hours. Then, cells from 2 ml of broth culture were harvested by centrifugation, and were washed with 1 ml of milliQ water three times. Then, washed cells were suspended in 1 ml of milliQ and were incubated at 70° C. for 10 min with a water bath to extract intracellular materials. After cell debris and the extract were separated by centrifugation, the aqueous phase was transferred to a clean vial and the vial was then vacuum-dried. Thus, a dried extract was prepared. Then, the amount of γ-Glu-Val-Gly in the dried extract was measured with LC-MS/MS analysis. The detailed procedures are described below.
1. Sample was dissolved in 100 μl of water, and then 100 μl of acetonitrile (MeCN) was added, and then centrifuged.
2. 190 μl of supernatant was transferred to a new tube and dried.
3. Pellet was dissolved in 40 μl of water.
4. For derivatization, 20 μl of the obtained solution was mixed with 60 μl of buffer and 80 μl of derivatization reagent, and incubated at 55° C. for 10 min.
5. After incubation, 200 μl of 0.1% solution of HCOOH in water was added to stop AQC derivatization reaction.
40 μl of the resultingsolution was taken for HPLC, and γ-Glu-Val-Gly in the elutants was analyzed with MS/MS detector.
It was shown that the HGT1 gene is essential to transport γ-Glu-Val-Gly from the medium, but PTR2 is not.

CC(C)[C@H](NC(=O)CC[C@H](N)C(=O)O)C(=O)NCC(=O)O [γ-Glu-Val-Gly]
intracellular γ-Glu-Val-Gly (Table 13, strain S288C hgt1Δ ptr2Δ): 0.01 mg 1^−1 OD600^−1
intracellular γ-Glu-Val-Gly (Table 13, strain S288C hgt1Δ): 0.01 mg 1^−1 OD600^−1
intracellular γ-Glu-Val-Gly (Table 13, strain S288C ptr2Δ): 1.84 mg 1^−1 OD600^−1
intracellular γ-Glu-Val-Gly (Table 13, strain S288C): 1.93 mg 1^−1 OD600^−1
intracellular γ-Glu-Val-Gly (Table 14, strain S288C PADH1-HGT1): 28.6 mg 1^−1 OD600^−1
intracellular γ-Glu-Val-Gly (Table 14, strain S288C PADH1-PTR2): 2.6 mg 1^−1 OD600^−1
intracellular γ-Glu-Val-Gly (Table 14, strain S288C): 3.3 mg 1^−1 OD600^−1
